According to US11401257B2, “Solid forms of 2-(4-chlorophenyl)-N-((2-(2,6-dioxopiperidin-3-yl)-1-oxoisoindolin-5-yl)methyl)-2,2-difluoroacetamide, and their pharmaceutical compositions and uses” (Celgene Corporation, priority 2016, dated 2022):
Converted amounts (≈) assume the structure as drawn.

Legend:
Assay type in all cases: physicochemical
[1] = Hygroscopicity by dynamic vapor sorption (DVS); settings: for water uptake (DVS): relative humidity increased from about 0% to about 90% RH; for DVS water uptake: up to 90% RH
Experimental: Hygroscopicity was determined on a Surface Measurement Systems DVS. Typically a sample size of 5-20 mg was loaded into the DVS instrument sample pan and the sample was analyzed on a DVS automated sorption analyzer at room temperature. The relative humidity was increased from 0% to 90% RH at 10% RH step, then decreased in a similar manner to accomplish a full adsorption/desorption cycle.

physchem [2] = settings: water, thermodynamic from solid, Approximate Solubility
Experimental: In order to select the screening solvents and to determine the concentration range to be used in the screen, a quantitative solubility assessment was performed on Form B and Form C of Compound 1.

physchem [3] = settings: for solubility at 24 h: thermodynamic from solid
Experimental: Solubility of Form C in selected aqueous and organic solvents was determined by mixing solid with solvents at room temperature. […]

[4] = Form conversion experiments (interconversion among solid forms); settings: anhydrates of Compound 1
Experimental: Further form conversion experiments were performed to determine interconversion among solid forms.

| SMILES | water uptake (DVS) [1] | DVS water uptake [1] [wt % water] | solubility (physchem [2]) [µg/mL] | solubility (physchem [3]; 2 h) [mg/mL] | solubility at 24 h (physchem [3]; pH 4, aqueous buffer) [µg/mL] | solubility at 24 h (physchem [3]; pH 6.8, aqueous buffer) [µg/mL] | thermodynamic stability among the crystal forms [4] |
| --- | --- | --- | --- | --- | --- | --- | --- |
| O=C1CCC(N2Cc3cc(CNC(=O)C(F)(F)c4ccc(Cl)cc4)ccc3C2=O)C(=O)N1 (centres unmarked) [Form A, 2-(4-chlorophenyl)-N-((2-(2,6-dioxopiperidin-3-yl)-1-oxoisoindolin-5-yl)methyl)-2,2-difluoroacetamide] | about 1.2 % w/w | ~1.2 | – | – | – | – | – |
| O=C1CCC(N2Cc3cc(CNC(=O)C(F)(F)c4ccc(Cl)cc4)ccc3C2=O)C(=O)N1 (centres unmarked) [Form B, 2-(4-chlorophenyl)-N-((2-(2,6-dioxopiperidin-3-yl)-1-oxoisoindolin-5-yl)methyl)-2,2-difluoroacetamide] | about 1.4 % w/w | ~1.4 | < 1000 | – | – | – | – |
| O=C1CCC(N2Cc3cc(CNC(=O)C(F)(F)c4ccc(Cl)cc4)ccc3C2=O)C(=O)N1 (centres unmarked) [Form C, 2-(4-chlorophenyl)-N-((2-(2,6-dioxopiperidin-3-yl)-1-oxoisoindolin-5-yl)methyl)-2,2-difluoroacetamide] | about 0.6 % w/w | ~0.6 | – | 0.843 (≈ 1830 µM) | 1 (≈ 2.17 µM) | 1 (≈ 2.17 µM) | most thermodynamically stable anhydrate |
